What was measured:
Assay in all cases: absorbance of reduced form, protection from air oxidation, one-site fit
Type in all cases: binding
myoglobin = target: T1, myoglobin (Homo sapiens, UniProt P02144)
T1 construct: gene MB; commercial protein with heme
T1 sequence (P02144 2-154): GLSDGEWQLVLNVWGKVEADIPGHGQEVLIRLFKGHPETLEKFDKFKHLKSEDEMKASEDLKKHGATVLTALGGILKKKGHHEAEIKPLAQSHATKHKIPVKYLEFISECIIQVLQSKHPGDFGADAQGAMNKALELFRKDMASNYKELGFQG

cytochrome c = target: T2, cytochrome c; conditions: PBS, 2 mM NH4OAc, ambient, 5 days; apparent, for retaining ferrous heme
T2 construct: gene CYCS; commercial reduced cytochrome c with heme

hemoglobin = target: T3, hemoglobin (Homo sapiens, UniProt P68871+P69905)
T3 construct: gene HBA1; commercial lyophilized hemoglobin with heme
T3 sequence (P69905 2-142): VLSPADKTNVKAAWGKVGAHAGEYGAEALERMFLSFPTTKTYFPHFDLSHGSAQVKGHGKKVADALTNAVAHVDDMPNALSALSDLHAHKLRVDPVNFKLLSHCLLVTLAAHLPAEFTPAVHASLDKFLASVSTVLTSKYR
T3 sequence (P68871 2-147): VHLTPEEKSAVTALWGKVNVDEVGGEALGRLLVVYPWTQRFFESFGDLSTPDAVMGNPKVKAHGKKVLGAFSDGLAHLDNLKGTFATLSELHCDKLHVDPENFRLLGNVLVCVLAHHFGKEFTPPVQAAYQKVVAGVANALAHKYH

## CN(C)C(=N)NC(=N)N [metformin]
myoglobin
  Kd: 570 µM
Cytochrome c
  Kd: 1150 µM
hemoglobin
  Kd: 860 µM

— article PMC6385989, “Metformin Affects Heme Function as a Possible Mechanism of Action” (G3: Genes|Genomes|Genetics, 2018)
